Test results: patent US20110293745A1, “AURORA KINASE INHIBITORS” (SUNESIS PHARMACEUTICALS, INC., priority 2008, published 2011)
Like-named read-outs stand apart in the source and are kept apart here.

What was measured:
[1] = Pharmacokinetics, single bolus intravenous injection; format: in vivo, CD-1 mice; conditions: CD-1, mouse, plasma, 5 mg/kg
Text: (§1) Pharmacokinetic parameters were estimated using noncompartmental analysis within WinNonlin v. 4.1. Quantification of Compound 2 was done by HPLC-MS/MS after extraction from plasma with acetonitrile. […] For rising dose experiments measuring exposure for each species, sets containing several animals were singly dosed at a given dose. Results from single-dose experiments are shown in FIG. 10A, Table 43, and in FIG. 10B and Table 44, respectively. […] C0 is initial concentration extrapolated to time zero. AUCINF is area under the plasma-concentration time curve from time zero extrapolated to the infinite time. CL is clearance; Vss is steady state volume of distribution. T1/2 is half-life.

[2] = as above; format: in vivo, Sprague-Dawley rats; conditions: Sprague-Dawley, rat, plasma, 5 mg/kg
Text: as §1

[3] = as above; format: in vivo, beagle dogs; conditions: beagle, dog, plasma, 5 mg/kg
Text: as §1

[4] = Mass balance, elimination, autoradiography and metabolites with 14C-label; format: in vivo; conditions: IV bolus 50 mg/kg, male rats, whole-body autoradiography
MiaPaca2 = assay: Cell cycle analysis (cells with ≧4N DNA content); format: cell-based; conditions: Homo sapiens, MIA PaCa-2, MiaPaca2, 16 hours
Text: Cells were fixed, stained, and analyzed.

[5] = system: pHH3 in HCT 116 tumor xenograft; assay: Phospho-histone H3 in vivo (Western blot of tumor); design: species or system mouse; conditions: single 50 mg/kg and 100 mg/kg IP; 3 hr, 6 hr, 10 hr post administration
Text: For each of the studies of compound distribution, pHH3 levels, and tumor section microscopy, after the tumors reached an average volume of 500 mm^3, the animals were weighed and sorted into randomized groups before initial dosing.

[6] = system: A2780 ovarian cancer xenograft; assay: In vivo efficacy, mouse xenograft
Protocol: (§2) Percent TGI is then calculated with the following equation: […]
(§3) Time To Endpoint (TTE) was calculated for each individual animal to reach the predetermined study end point where the tumor volume becomes 1200 mm^3 or 10% of body weight or a greater than 20% body weight loss for two sequential measurements. The TTE is calculated and the median value is recorded for the group. Tumor Growth Delay (TGD) is then calculated with the following equation: […]
(§4) A2780 ovarian cancer cells [200 μL of a 2.5×10^7 cells/mL suspension (1:1 DPBS with cells:Matrigel)] were implanted subcutaneously in the right hind flank of mice. After 7 days, when tumors reached an average volume of approximately 130 mm^3, animals were weighed, randomized by tumor volume (l×w×h×0.52), and assigned to the various study groups before initial dosing.

[7] = system: MDA-MB-231 breast cancer xenograft; assay: In vivo efficacy, mouse xenograft
Protocol: as §2, §3
as §4, with “MDA-MB-231 breast cancer” for “A2780 ovarian cancer”, “After 13” for “After 7”, “reached n” for “reached an”, “approximately 95” for “approximately 130”

[8] = system: broad panel of cancer cell lines; assay: cells; conditions: Homo sapiens, 96 h, read-out: anti-proliferative IC50 values
Protocol: Cellular proliferation was assessed using the Cell Proliferation ELISA, bromodeoxyuridine (BrdU) kit (Roche) including reagents, according to the kit protocol.

For `O=C(Nc1cccc(Cl)c1)Nc1ncc(CCNc2ncnc3ccsc23)s1` [Compound 2, 1-(3-chlorophenyl)-3-{5-[2-(thieno[3,2-d]pyrimidin-4-ylamino)ethyl]thiazol-2-yl}-urea], the AUC(0-inf) [1] was 1800 ng·h/mL, the C0 [1] was 7100 ng/mL and the clearance [1] was 47.6 mL/min/kg. The half-life [1] was 1.4 h, the Vd ([1]; read-out: Vss) was 1 L/kg and the AUC(0-inf) [2] was 2100 ng·h/mL. For the same compound, the C0 [2] was 3600 ng/mL, the clearance [2] was 41.2 mL/min/kg and the half-life [2] was 0.8 h. The Vd ([2]; read-out: Vss) was 1.8 L/kg, the AUC(0-inf) [3] was 12300 ng·h/mL and the C0 [3] was 2800 ng/mL. The clearance [3] was 6.8 mL/min/kg, the half-life [3] was 1.1 h and the Vd ([3]; read-out: Vss) was 1 L/kg. The “time of maximum tissue concentrations of radioactivity” value [4] was 1 h.

With `CS(=O)(=O)O.O=C(Nc1cccc(Cl)c1)Nc1ncc(CCNc2ncnc3ccsc23)s1` [Compound 1, 1-(3-chlorophenyl)-3-{5-[2-(thieno[3,2-d]pyrimidin-4-ylamino)ethyl]thiazo}-urea] the EC50 (MiaPaca2) was 9 nM, the “level of pHH3 in tumor versus vehicle-treated mice” value [5] was “decreased” and the “% TGI” value ([6]; 42.5 mg/kg biw × 3) was 0%. For the same compound, the TGD ([6]; 42.5 mg/kg biw × 3) was 0 days, the “% TGI” value ([6]; 85 mg/kg biw × 3) was 9.8% and the TGD ([6]; 85 mg/kg biw × 3) was 3.5 days. For the same compound, the “% TGI” value ([6]; 170 mg/kg biw × 3) was 53.8%, the TGD ([6]; 170 mg/kg biw × 3) was 9 days and the “% TGI” value ([7]; 42.5 mg/kg biw × 3) was 20.6%. The TGD ([7]; 42.5 mg/kg biw × 3) was 3.5 days, the “% TGI” value ([7]; 85 mg/kg biw × 3) was 19.2% and the TGD ([7]; 85 mg/kg biw × 3) was 4.0 days. For the same compound, the “% TGI” value ([7]; 170 mg/kg biw × 3) was 73.8%, the TGD ([7]; 170 mg/kg biw × 3) was 14.1 days and the IC50 [8] was 2 to 10 nM.
